Measurements from ChEMBL document CHEMBL1201862, “PubChem BioAssay data set” (2004).
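Grown in 96-well plates, cells were treated for 48 hours with each compound at five concentrations. Insufficient inhibition: endpoint recorded as highest concentration tested. GI50 = concentration required for 50% inhibition of growth.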 Active and inactive are the calls of the source. Rule as the data show it: active = GI50 up to about 1.1 µM and inactive = higher.

Legend:
Assay in all cases: inhibition of tumour cell growth, NCI panel, 48 h
PC-3 = tested on: PC-3
UACC-257 = tested on: UACC-257
HL-60 = tested on: HL-60
NCI-H226 = tested on: NCI-H226
HOP-92 = tested on: HOP-92
T47D = tested on: T47D
TK-10 = tested on: TK-10
ACHN = tested on: ACHN
NCI-H460 = tested on: NCI-H460
DU-145 = tested on: DU-145
SK-MEL-28 = tested on: SK-MEL-28
HCC 2998 = tested on: HCC 2998
K562 = tested on: K562
SR = tested on: SR
SK-OV-3 = tested on: SK-OV-3
HCT-116 = tested on: HCT-116
Malme-3M = tested on: Malme-3M
IGROV-1 = tested on: IGROV-1
BT-549 = tested on: BT-549
SF-268 = tested on: SF-268
OVCAR-8 = tested on: OVCAR-8
SNB-75 = tested on: SNB-75
NCI/ADR-RES = tested on: NCI/ADR-RES
HT-29 = tested on: HT-29
SN12C = tested on: SN12C
RPMI-8226 = tested on: RPMI-8226
COLO 205 = tested on: COLO 205
MDA-N = tested on: MDA-N
OVCAR-5 = tested on: OVCAR-5
SK-MEL-5 = tested on: SK-MEL-5
U-251 = tested on: U-251
MDA-MB-435 = tested on: MDA-MB-435
EKVX = tested on: EKVX
M14 = tested on: M14
HOP-62 = tested on: HOP-62
SW-620 = tested on: SW-620
UACC-62 = tested on: UACC-62
CCRF-CEM = tested on: CCRF-CEM
RXF 393 = tested on: RXF 393
UO-31 = tested on: UO-31
786-0 = tested on: 786-0
SF-295 = tested on: SF-295
MCF7 = tested on: MCF7
OVCAR-3 = tested on: OVCAR-3
A498 = tested on: A498
NCI-H23 = tested on: NCI-H23
Hs-578T = tested on: Hs-578T
MOLT-4 = tested on: MOLT-4
A549 = tested on: A549
HCT-15 = tested on: HCT-15
SF-539 = tested on: SF-539
KM12 = tested on: KM12
SNB-19 = tested on: SNB-19

Measured: GI50

Cc1cc2ccccc2n2c1nc1ccccc12
> 100 µM: HCT-15
inactive: PC-3 > 100 µM | UACC-257 > 100 µM | HL-60 > 100 µM | NCI-H226 > 100 µM | HOP-92 > 100 µM | T47D > 100 µM | TK-10 > 100 µM | ACHN > 100 µM | NCI-H460 > 100 µM | DU-145 > 100 µM | SK-MEL-28 > 100 µM | HCC 2998 > 100 µM | K562 > 100 µM | SR > 100 µM | SK-OV-3 > 100 µM | HCT-116 > 100 µM | Malme-3M > 100 µM | IGROV-1 > 100 µM | BT-549 > 100 µM | SF-268 > 100 µM | OVCAR-8 > 100 µM | SNB-75 > 100 µM | NCI/ADR-RES > 100 µM | HT-29 > 100 µM | SN12C > 100 µM | RPMI-8226 > 100 µM | COLO 205 > 100 µM | MDA-N > 100 µM | OVCAR-5 > 100 µM | SK-MEL-5 > 100 µM | U-251 > 100 µM | MDA-MB-435 > 100 µM | EKVX > 100 µM | M14 > 100 µM | HOP-62 > 100 µM | SW-620 > 100 µM | UACC-62 > 100 µM | CCRF-CEM > 100 µM | RXF 393 > 100 µM | UO-31 > 100 µM | 786-0 > 100 µM | SF-295 > 100 µM | MCF7 > 100 µM | OVCAR-3 > 100 µM | A498 15.2 µM | NCI-H23 > 100 µM | Hs-578T > 100 µM | MOLT-4 > 100 µM | A549 > 100 µM | SF-539 > 100 µM | KM12 > 100 µM | SNB-19 > 100 µM
